The source made the active and inactive calls. No cut-off for these calls is given here.
Columns and labels:
[1] = system: MDA-MB-231; assay: Antiproliferative activity against human MDA-MB-231 cells assessed as decrease in sphere size by measuring sphere diameter at 10 uM incubated for 10 days by confocal laser scanning microscopy (reference value: 508.27 micrometer); format: functional; details: time 10 day
[2] = system: MDA-MB-231; assay: Inhibition of colony formation in human MDA-MB-231 cells at 2 uM incubated for 10 days by crystal violet staining based analysis; format: functional, cell-based; details: time 10.0 day
[3] = system: MDA-MB-231; assay: Antiproliferative activity against human MDA-MB-231 cells assessed as inhibition of cell growth incubated for 48 hrs by MTT assay; format: functional, cell-based; details: MDA-MB-231, 48 h
[4] = system: MDA-MB-231; assay: cells; details: Homo sapiens
[5] = system: MDA-MB-436; assay: cells; details: Homo sapiens
[6] = system: BT-549; assay: cells; details: Homo sapiens
[7] = system: HeLa; assay: cells; details: Homo sapiens, 72 h
[8] = system: MDA-MB-231; assay: Induction of apoptosis in human MDA-MB-231 cells assessed as viable cells at 1000 nM incubated for 72 hrs by Annexin V-FITC/PI staining based flow cytometry analysis (reference value: 94.81 %); format: functional; details: read-out: Activity
[9] = Selectivity index, ratio of IC50 for the cytotoxicity against human LO2 cells to IC50 for antiproliferative activity against human MDA-MB-231 cells; format: toxicity, cell-based; details: LO2 cells versus MDA-MB-231 cells, read-out: Ratio IC50
[10] = Cytotoxicity against HK-2 cells assessed as inhibition of cell growth incubated for 72 hrs by MTT assay; format: toxicity, cell-based; details: human
[11] = system: A549; assay: cells; details: Homo sapiens, A549, 72 h
[12] = Cytotoxicity against human L02 cells assessed as inhibition of cell growth incubated for 72 hrs by MTT assay; format: toxicity, cell-based
[13] = system: HepG2; assay: cells; details: Homo sapiens, HepG2, 72 h
[14] = molecular target: CDK9/cyclin T1 (Homo sapiens, UniProt P50750); assay: Inhibition of human CDK9/Cyclin T1 in presence of ATP by radiometric kinase assay; format: protein-complex assay
[15] = system: BT-549; assay: cells; details: Homo sapiens, BT-549, 72 h
[16] = system: MDA-MB-231; assay: cells; details: Homo sapiens, MDA-MB-231, 72 h
[17] = molecular target: CDK9/cyclin T1 (Homo sapiens) (UniProt O60563+P50750); assay: Inhibition of CDK9/Cyclin T1 protein-protein interaction in human MDA-MB-231 cells at 3 uM incubated for 8 hrs by co-immunoprecipitation assay; format: cell-based
[18] = system: MDA-MB-231; assay: Induction of apoptosis in human MDA-MB-231 cells assessed as necrotic cells at 1000 nM incubated for 72 hrs by Annexin V-FITC/PI staining based flow cytometry analysis (reference value: 0.49 %); format: functional
[19] = system: MDA-MB-231; assay: Induction of apoptosis in human MDA-MB-231 cells assessed as early apoptotic cells at 1000 nM incubated for 72 hrs by Annexin V-FITC/PI staining based flow cytometry analysis (reference value: 0.66 %); format: functional
[20] = Cytotoxicity against human MCF-10A cells assessed as inhibition of cell growth incubated for 72 hrs by MTT assay; format: toxicity, cell-based
[21] = Cytotoxicity against human MRC5 cells assessed as inhibition of cell growth incubated for 72 hrs by MTT assay; format: toxicity, cell-based
[22] = system: Hs-578T; assay: cells; details: Homo sapiens, 72 h
[23] = system: 4T1; assay: cells; details: Mus musculus, 4T1, 72 h
[24] = system: MDA-MB-231; assay: Induction of apoptosis in human MDA-MB-231 cells assessed as late apoptotic cells at 1000 nM incubated for 72 hrs by Annexin V-FITC/PI staining based flow cytometry analysis (reference value: 4.04 %); format: functional
[25] = system: MDA-MB-231; assay: Inhibition of RNA Polymerase II CTD phosphorylation at ser2 residue in human MDA-MB-231 cells at 1 uM incubated for 24 hrs by Western blotting analysis; format: cell-based

Chain of CDK9/cyclin T1 (O60563 whole entry): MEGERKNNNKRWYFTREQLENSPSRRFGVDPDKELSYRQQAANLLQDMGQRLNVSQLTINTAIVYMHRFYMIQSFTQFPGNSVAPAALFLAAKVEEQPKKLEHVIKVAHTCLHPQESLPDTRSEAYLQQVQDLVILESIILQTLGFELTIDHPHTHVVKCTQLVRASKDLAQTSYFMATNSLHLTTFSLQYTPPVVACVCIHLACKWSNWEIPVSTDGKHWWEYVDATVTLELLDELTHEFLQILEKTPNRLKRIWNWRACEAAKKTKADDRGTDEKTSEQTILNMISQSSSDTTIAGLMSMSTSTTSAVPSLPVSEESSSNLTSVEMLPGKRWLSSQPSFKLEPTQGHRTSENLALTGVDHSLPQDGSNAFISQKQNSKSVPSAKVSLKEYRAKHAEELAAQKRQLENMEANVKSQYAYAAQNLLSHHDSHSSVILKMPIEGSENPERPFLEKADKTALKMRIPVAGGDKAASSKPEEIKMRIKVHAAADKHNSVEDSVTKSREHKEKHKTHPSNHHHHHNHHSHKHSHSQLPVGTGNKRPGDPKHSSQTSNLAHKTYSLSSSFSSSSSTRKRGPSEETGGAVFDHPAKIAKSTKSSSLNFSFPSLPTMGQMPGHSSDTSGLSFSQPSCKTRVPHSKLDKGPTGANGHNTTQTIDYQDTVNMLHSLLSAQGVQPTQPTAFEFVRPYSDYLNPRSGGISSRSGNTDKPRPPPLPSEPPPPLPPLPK
Chain of CDK9/cyclin T1 (P50750 whole entry): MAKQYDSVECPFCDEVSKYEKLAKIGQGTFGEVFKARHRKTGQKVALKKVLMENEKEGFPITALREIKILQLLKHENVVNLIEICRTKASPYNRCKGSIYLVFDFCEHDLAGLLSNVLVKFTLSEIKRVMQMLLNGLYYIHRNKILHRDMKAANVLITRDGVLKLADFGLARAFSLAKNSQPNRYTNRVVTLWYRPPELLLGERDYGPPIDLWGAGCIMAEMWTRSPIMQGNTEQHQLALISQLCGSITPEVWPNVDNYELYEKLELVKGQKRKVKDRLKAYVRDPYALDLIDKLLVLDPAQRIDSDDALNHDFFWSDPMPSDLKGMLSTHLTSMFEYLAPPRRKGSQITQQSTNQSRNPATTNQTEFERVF

SMILES: O=C(c1cc(Cc2n[nH]c(=O)c3ccccc23)ccc1F)N1CCN(C(=O)C2CC2)CC1 [OLAPARIB]
- Activity [1]: 472.83 um
- inhibition [2]: inactive
- IC50 [3]: > 50000 nM

SMILES: Cc1sc2c(c1C)C(c1ccc(Cl)cc1)=N[C@@H](CC(=O)OC(C)(C)C)c1nnc(C)n1-2
- IC50 [3]: 3150 nM

SMILES: COc1cc(F)ccc1-c1ncnc(Nc2cccc(C[S@](C)(=N)=O)c2)n1 [ATUVECICLIB]
- IC50 [4]: 1320 nM
- IC50 [5]: 630 nM
- IC50 [6]: 2010 nM

SMILES: N[C@H]1CC[C@H](Nc2cc(-c3cccc(NCc4cccc(F)c4)n3)c(Cl)cn2)CC1
- IC50 [7]: 150 nM
- viability at 1 µM [8]: 19.3%
- selectivity ratio [9]: 3
- IC50 at 72 h [10]: 187 nM
- IC50 [11]: 1620 nM
- IC50 at 72 h [12]: 278 nM
- IC50 [13]: 473 nM
- IC50 [14]: < 0.4 nM
- IC50 [15]: 53 nM
- IC50 [16]: 80 nM
- inhibition [17]: inactive
- Activity [18]: 0.2%
- Activity [19]: 37.6%
- IC50 at 72 h [20]: 108 nM
- IC50 at 72 h [21]: 197 nM
- IC50 [22]: 74 nM
- IC50 [23]: 116 nM
- Activity [24]: 42.9%

SMILES: CCN1CCN(c2cc(-c3ccnc(NC(=O)c4ccc(OC)cc4)c3)ccn2)CC1
- IC50 [7]: 3260 nM
- IC50 [11]: 1580 nM
- IC50 at 72 h [12]: 6890 nM
- IC50 [16]: 1000 nM

SMILES: COc1ccc(C(=O)Nc2cc(-c3ccnc(N4CCC(NC(=O)OC(C)(C)C)CC4)c3)ccn2)cc1
- IC50 [7]: > 10000 nM
- IC50 [11]: 3290 nM
- IC50 at 72 h [12]: 538 nM
- IC50 [16]: 199 nM

SMILES: CC1CCCN(c2cc(-c3ccnc(NC(=O)c4ccc(F)cc4)c3)ccn2)C1 (stereo not drawn)
- IC50 [7]: 474 nM
- IC50 [11]: 4320 nM
- IC50 at 72 h [12]: 1230 nM
- IC50 [16]: 273 nM

SMILES: COc1ccc(C(=O)Nc2cc(-c3ccnc(N4CCCC(CO)C4)c3)ccn2)cc1 (stereo not drawn)
- IC50 [7]: 272 nM
- selectivity ratio [9]: 34
- IC50 [11]: 2440 nM
- IC50 at 72 h [12]: 2600 nM
- IC50 [16]: 76 nM

SMILES: COc1ccc(C(=O)Nc2cc(-c3ccnc(N4CCC(N)CC4)c3)ccn2)cc1
- IC50 [7]: > 10000 nM
- IC50 [11]: 2370 nM
- IC50 at 72 h [12]: 1380 nM
- IC50 [16]: 1160 nM

SMILES: Cc1ccccc1C(=O)Nc1cc(-c2ccnc(N3CCC(O)CC3)c2)ccn1
- IC50 [7]: > 10000 nM
- IC50 [11]: > 10000 nM
- IC50 at 72 h [12]: > 10000 nM
- IC50 [16]: > 10000 nM

SMILES: CCOc1ccc(C(=O)Nc2cc(-c3ccnc(N4CCC(O)CC4)c3)ccn2)cc1
- IC50 [7]: 1360 nM
- selectivity ratio [9]: 1
- IC50 [11]: 5340 nM
- IC50 at 72 h [12]: 132 nM
- IC50 [16]: 103 nM
- inhibition [25]: Active

SMILES: O=P1(N(CCCl)CCCl)NCCCO1 (stereo not drawn) [CYCLOPHOSPHAMIDE ANHYDROUS]
- IC50 [3]: > 50000 nM

SMILES: CC(=O)O[C@H]1C(=O)[C@@]2(C)[C@H]([C@H](OC(=O)c3ccccc3)[C@]3(O)C[C@H](OC(=O)[C@H](O)[C@@H](NC(=O)c4ccccc4)c4ccccc4)C(C)=C1C3(C)C)[C@]1(OC(C)=O)CO[C@@H]1C[C@@H]2O [PACLITAXEL]
- IC50 [3]: < 5 nM

SMILES: O=c1[nH]cc(F)c(=O)[nH]1 [FLUOROURACIL]
- IC50 [3]: 13900 nM

SMILES: COc1ccc(CC(=O)Nc2cc(-c3ccnc(N4CCC(O)CC4)c3)ccn2)cc1
- IC50 [7]: > 10000 nM
- IC50 [11]: > 10000 nM
- IC50 at 72 h [12]: > 10000 nM
- IC50 [16]: 7860 nM
- inhibition [25]: Active

SMILES: Cc1ccc(C(=O)Nc2cc(-c3ccnc(N4CCCC(O)C4)c3)ccn2)cc1 (stereo not drawn)
- IC50 [7]: 1990 nM
- IC50 [11]: > 10000 nM
- IC50 at 72 h [12]: 591 nM
- IC50 [16]: 726 nM

SMILES: COc1cccc(C(=O)Nc2cc(-c3ccnc(N4CCC(O)CC4)c3)ccn2)c1
- IC50 [7]: > 10000 nM
- IC50 [11]: 2880 nM
- IC50 at 72 h [12]: 2980 nM
- IC50 [16]: 3940 nM
- inhibition [25]: Active
